# Results reported in US20120004188A1, “USE OF RANOLAZINE FOR TREATING PULMONARY HYPERTENSION” (Gilead Sciences, Inc., priority 2010, published 2012).
# Like-named read-outs stand apart in the source and are kept apart here.
# Tests used:
# [1] = tested on: MCT-induced PAH and RV dysfunction; experiment: Monocrotaline (MCT)-induced chronic PAH and RV dysfunction model in rats; format: in vivo, Male Sprague-Dawley rats; settings: for RV hypertrophy, RV(milligrams)/LV(milligrams) / plasma BNP levels / decrease in RV ejection fraction: day 28; for RV hypertrophy, RV(milligrams)/LV(milligrams): MCT 0.55±0.04; for plasma BNP levels: MCT 590±106, control 170±90; for decrease in RV ejection fraction: MCT −47±7%; for pulmonary systolic pressure: MCT 84±7, control 29±1; for RV systolic pressure: MCT 86±7, control 26±1
# Excerpt: As is discussed in detail hereinabove, ranolazine is an anti-anginal drug that inhibits the late sodium current (INa) in cardiomyocytes. Late INa is increased during conditions of ischemia and hypoxia, and causes intracellular Ca^2+ overload by increasing the amount of intracellular Na^+ available for exchange via the Na^+—Ca^2+ exchanger (NCX). […] Monocrotaline or MCT (a poisonous crystalline alkaloid found in a leguminous plant of the genus Crotalaria) induces progressive pulmonary arterial hypertension (PAH) in rats that results in RV hypertrophy, contractile dysfunction, and eventually RV failure. Both human PAH and MCT-induced PAH models are characterized by hypoxia and increased ROS production but the role of late INa in this model has not been investigated. Therefore, the present example evaluates the efficacy of RAN to prevent MCT-induced PAH and RV dysfunction. Male Sprague-Dawley rats were given a single injection of MCT (60 milligrams per kilogram, s.c.) at study inception and randomized into three groups; MCT, low dose RAN (0.25% weight of RAN over weight of chow), and high dose (0.5% weight of RAN over weight of chow) RAN. RAN was given in diet for 28 days mixed in standard rodent chow containing 0.25% or 0.5% RAN for low and high doses, respectively. These concentrations of RAN yielded plasma concentrations of 1-2 micromolar and 5-7 micromolar, respectively. A control group received a sub-cutaneous (s.c.) saline injection and was fed standard rodent chow. Pulmonary hemodynamics, RV function, and RV hypertrophy was assessed at endpoint (day 28 following MCT administration). Alpha-smooth muscle actin (α-SMA) staining on lung tissue sections were carried out to assess pulmonary vascular remodeling at day 28 as well.
# [2] = tested on: right ventricular remodeling following acute myocardial infarction; experiment: Murine model of large anterior wall acute myocardial infarction (permanent ligation of the left coronary artery); format: in vivo, Male Imprinting Control Region (ICR) mice; settings: 30 mg/kg i.p. every 6 hours for 7 days
# Description: Male Imprinting Control Region (ICR) mice underwent permanent coronary artery ligation of the left coronary artery and treated with vehicle (saline) or ranolazine 30 mg/kg i.p. every 6 hours (N=10-12 per group) for 7 days starting at the time of ligation. Infarct size was measured early using Masson's trichrome staining. Transthoracic echocardiography was performed prior to surgery and 7 days later to measure left ventricular and right ventricular dimensions and function.
# [3] = Plasma concentration of RAN given in diet to rats; format: in vivo; settings: male, Sprague-Dawley, oral, rat, read-out: plasma concentrations
# Excerpt: Male Sprague-Dawley rats were given a single injection of MCT (60 milligrams per kilogram, s.c.) at study inception and randomized into three groups; MCT, low dose RAN (0.25% weight of RAN over weight of chow), and high dose (0.5% weight of RAN over weight of chow) RAN. RAN was given in diet for 28 days mixed in standard rodent chow containing 0.25% or 0.5% RAN for low and high doses, respectively. These concentrations of RAN yielded plasma concentrations of 1-2 micromolar and 5-7 micromolar, respectively. A control group received a sub-cutaneous (s.c.) saline injection and was fed standard rodent chow. Pulmonary hemodynamics, RV function, and RV hypertrophy was assessed at endpoint (day 28 following MCT administration). Alpha-smooth muscle actin (α-SMA) staining on lung tissue sections were carried out to assess pulmonary vascular remodeling at day 28 as well.
# [4] = tested on: pulmonary hypertension or PAH; experiment: Right ventricular function, exercise capacity and quality of life in patients with pulmonary hypertension or PAH; format: in vivo; settings: contemplated result
# Excerpt: To ascertain the improvement in right ventricular function in patients suffering from pulmonary hypertension or pulmonary arterial hypertension (PAH), the following parameters are examined: • Exercise capacity and quality of life • RV subendocardial perfusion using adenosine cardiac MRI studies • Exercise-induced changes in RV function determined non-invasively using comprehensive Doppler and tissue Doppler echocardiography along with determination of right ventricular—pulmonary vascular coupling and pulmonary vascular impedance spectra • RV contractility and comprehensive pressure-volume analysis using invasive hemodynamics, 2D and 3D echocardiography, and cardiac MRI Note that the aforementioned endpoints use a combination of invasive and non-invasive techniques. Echocardiography techniques are best suited for exercise studies. Echocardiographic RV volume data can be normalized to MRI RV volume data, and echocardiographic estimation of RV pressures can be normalized to invasive RV pressure data, thereby increasing the accuracy of echocardiographic analysis of RV structure and function.
# [5] = high dose RAN (0.5% in chow), day 28 after MCT
# [6] = echocardiography at day 7, versus vehicle-treated mice
structure (smiles),measurement,setting,value
"COc1ccccc1OCC(O)CN1CCN(CC(=O)Nc2c(C)cccc2C)CC1 (racemic) [ranolazine, ±-N-(2,6-dimethylphenyl)-4-[2-hydroxy-3-(2-methoxyphenoxy)-propyl]-1-piperazineacetamide]","MCT induced changes (PAH and RV dysfunction), overall","[1]; 0.25% and 0.5% RAN in chow, 28 days",significantly and dose-dependently attenuated
same,"RV hypertrophy, RV(milligrams)/LV(milligrams)",[1]; high dose RAN (0.5% in chow),0.32±0.03
same,plasma BNP levels,[1]; high dose RAN (0.5% in chow),60±20 picograms/milliliter
same,decrease in RV ejection fraction,[1]; high dose RAN (0.5% in chow),−10±8%
same,pulmonary systolic pressure,[1]; [5],40±4 millimeters Hg
same,RV systolic pressure,[1]; [5],39±4 millimeters Hg
same,"RV hypertrophy, RV(milligrams)/LV(milligrams)",[1]; low dose RAN (0.25% in chow),0.4±0.03
same,plasma BNP levels,[1]; low dose RAN (0.25% in chow),180±30 picograms/milliliter
same,decrease in RV ejection fraction,[1]; low dose RAN (0.25% in chow),−17±11%
same,pulmonary systolic pressure,"[1]; low dose RAN (0.25% in chow), day 28 after MCT 60 mg/kg s.c.",59±5 millimeters Hg
same,RV systolic pressure,"[1]; low dose RAN (0.25% in chow), day 28 after MCT",58±5 millimeters Hg
same,pulmonary vascular remodeling in intra-acinar arteries (ratio of vessel wall thickness to lumen diameter),"[1]; α-SMA staining of lung sections, day 28, compared to MCT animals",significantly reduced remodeling
same,infarct size,[2]; Masson's trichrome staining,absence of any measurable effects
same,LV function and dimension,[2]; echocardiography at day 7,absence of any measurable effects
same,RV dimension (RV diastolic and systolic areas),[2]; [6],significant preservation
same,RV function (TAPSE and RV fractional area change),[2]; [6],significant preservation
same,concentration at 28 days,"[3]; 0.25 % weight of RAN over weight of chow, low dose RAN, 0.25% in chow",1 to 2 µM
same,concentration at 28 days,"[3]; 0.5 % weight of RAN over weight of chow, high dose RAN, 0.5% in chow",5 to 7 µM
same,exercise capacity and quality of life,[4],improve exercise capacity and quality of life
same,pain associated with pulmonary hypertension or PAH,[4],ameliorates pain
